Here are results for 3 compounds from publication PMC11788822, “Uncovering the potent antimicrobial activity of squaramide based anionophores – chloride transport and membrane disruption” (Chemical Science, 2025).

Details of data set [1]: method as in doi:10.1021/jo01097a026. The following applies: for the relevant substitution pattern; cited from earlier work.
Data set [2] is described as follows: Lucigenin Cl−/NO3− exchange assay in LUVs. The following applies: Cl− transport, 0.4 mM POPC/cholesterol 7:3 LUVs, Hill fit at 270 s. The procedure:
Given our objective was to use such transport behaviour as a method to disrupt anion homeostasis in bacteria, we also conducted anion transport assays in Large Unilamellar Liposomes (LUVs) using the well-established Lucigenin-based Cl^−/NO3^− exchange assay.[40] Briefly, LUVs containing the chloride sensitive dye lucigenin in a NaNO3 solution were prepared and a NaCl pulse was added to create a chloride concentration gradient. Upon addition of the putative transporter, the quenching of the fluorescence of lucigenin was monitored over time to assess Cl^− influx.
Lucigenin Cl-/NO3- anion exchange assay
LUV preparation and Lucigenin assays were carried out following procedures outlined by Valkenier and co-workers.8 Large unilamellar liposomes (LUVs) were synthesized using 1-palmitoyl-2-oleoyl-sn-glycero-3-phosphocholine (POPC)(11.2 µmol, soln. in CHCl3) and Cholesterol (4.8 µmol) mixed in a ratio of 7:3. This mixture was brought to dryness under gentle vacuum and subsequently, the mixture was rehydrated in an aqueous Lucigenin solution (1 mL, 0.8mM lucigenin in 225 mM NaNO3) and stirred for 1 h to obtain heterogeneous vesicles. After that, the vesicles underwent 9 freeze-thaw cycles and were extruded through a […] polycarbonate membrane 29 times to obtain monodisperse LUVs. A Sephadex G-100 size-exclusion column was employed to remove any unencapsulated lucigenin. The collected liposomes were diluted to 40 mL with 225 mM NaNO3 to obtain a homogeneous 0.4 mM liposome solution. Lucigenin fluorescence quenching was monitored in a time dependent manner using an Agilent Spectrofluorimeter to access Cl- influx (λ ex = 430 nm, λem = 505 nm).
Cl- transport behaviour was initiated at t=0 s by adding each compound as a solvate in DMSO followed by a 25 mM NaCl pulse (75µL, 1 M NaCl in […] NaNO3) to a 3 mL liposome solution. The data was collected for at least 600 s and then Triton X-100 (5% w/w in water) was added to lyse the liposomes, and normalize to 100% efflux. The recorded data was normalised and the fraction fluorescence intensity at 270 s of each tested concentration of transporters (mol%) was plotted against transporter concentration (mol%). The data obtained was fitted to the Hill equation to obtain the EC50 value at 270 s (the concentration to obtain the half maximum effect) by using Originlab 2024b or Graphpad Prism 10:
y = START + (END ‒ START) ∗ xn/(kn + xn)
Where n is the Hill coefficient, k presents the EC 50 value.

The subject of data set [3] is methicillin-resistant S. aureus (MRSA). Put plainly: Growth inhibition assay, MRSA. It counts as cell-based, Staphylococcus aureus. The conditions noted are these: 24 h; for pIC50 / IC80: Staphylococcus aureus, MRSA; for pIC50: read-out: MRSA IC50, growth (OD 600 nm) relative to control, 24 h, 37 °C; for IC80: read-out: MRSA IC80, growth (OD 600 nm) relative to control, 24 h, 37 °C; for MRSA IC50: growth (OD 600 nm) relative to control, 37 °C. The procedure:
(§1) To determine IC50/80 values, growth (optical density) of S. aureus, methicillin-resistant S. aureus (MRSA), P. aeruginosa, and K. pneumoniae when treated with a range of concentrations of each active compound in vitro was measured at 600 nm after a 24 h incubation period at 37 °C. Each compound was studied for activity below […], and those showing little activity above 200 μM, were noted as such, and omitted from further study.
Staphylococcus aureus culture conditions […]
Methicillin-resistant Staphylococcus aureus culture conditions
Methicillin-resistant S. aureus (clinical isolate – St. James’ University Hospital, Dublin) was cultured at 37 °C in Nutrient broth (Oxoid), containing 25 µg/mL Ampicillin in an orbital shaker at 200 rpm. Stocks were kept on nutrient agar containing 25 µg/mL Ampicillin, stored at 4 °C for up to 2 months, or as glycerol stocks (50/50 glycerol:culture), stored at -70 °C indefinitely. […]
(§2) Bacterial cultures were brought to early stationary phase overnight, in nutrient broth (containing 25/50 µg/mL Ampicillin for MRSA/K. pneumoniae, respectively) at 37 °C. Cultures were diluted to an OD600 = 0.01. Aliquots of Culture (100 µl) were added to 100 µL serially diluted compound (200 – 0.78 µM) in nutrient broth in a 96-well plate (Sarstedt, Germany).
(§3) Plates were incubated at 37 °C for 24 h and growth was measured at 600 nm, where growth was measured and represented relative to control. […]

Another data set relates to S. aureus. Put plainly: Growth inhibition assay, S. aureus. It counts as cell-based, Staphylococcus aureus. The conditions noted are these: 24 h, growth (OD 600 nm) relative to control, 37 °C; for IC80 / pIC50: Staphylococcus aureus. Here is the method: as §1
Staphylococcus aureus culture conditions
S. aureus (ATCC33951) was cultured at 37 °C in Nutrient broth (Oxoid), in an orbital shaker at 200 rpm. Stocks were kept on nutrient agar, stored at 4 °C for up to 2 months, or as glycerol stocks (50/50 glycerol:culture), stored at -70 °C indefinitely. […]
as §2, §3

Data set [4] in a line: 1H NMR titration with TBACl, Cl− binding. The following applies: association constant towards Cl−, compound 2.5 mM, 95% DMSO-d6, 1:1 binding model (Bindfit), errors below 10%. The procedure:
To verify if 1–6 formed host–guest complexes with Cl^− in solution, ^1H NMR titrations of each compound (2.5 mM) with TBACl were carried out in DMSO-d6. Increasing equivalents of Cl^− were incrementally added, with spectral information obtained upon addition of each molar equivalent of Cl^−. […] Taking 1 as an example (Fig. 2), upon addition of sequential aliquots of Cl^− there is a clear downfield shift of both squaramide NHs, with minor contributions to the binding cleft derived from the ortho-aryl protons of the aniline of 1. The binding data from each titration was fitted to a 1 : 1 binding model using the Bindfit[36] open access software, and the results are tabulated below (Table 1), alongside the respective Hammett constant for the relevant substitution pattern.[37] […] This aligns with previously reported receptors,[38] where compounds containing CF3 substituents in particular are known to have increased anion binding affinity as well as transport ability.[39]

The test system of data set [5] is panel of Gram-positive and -negative pathogens. Put plainly: Zone of inhibition assay. It counts as cell-based. The conditions noted are these: 5 μL of 1 mM stock on nutrient agar, 37 °C, 24 h; radius ≤ 2 mm deemed not active. The procedure: To do this, a zone of inhibition assay was used as a qualitative measure of activity. To do so, 5 μL of a 1 mM stock of the respective compound was pipetted atop nutrient agar which was previously spread with a panel of Gram-positive and -negative pathogens of interest. Following incubation at 37 °C for 24 h, zones of inhibition were measured and recorded for each compound. Zones with a radius ≤ 2 mm were deemed as not active, and thus eliminated from further study.

pIC50: −log10 of the molar value. “And” between values parts separate entries of the source, which are not always exact repeats. Equal entries are not always repeated. Where only a bound is given, the exact number is not on record here.

The pIC50 is −log10 of the IC50, conventionally taken in molar units. In general, IC80 refers to the concentration at which the effect reaches the 80% level. Turning to `O=c1c(Nc2ccc(Cl)cc2)c(NC23CC4CC(CC(C4)C2)C3)c1=O` [Compound 3], the “Hammett parameter (σ)” value in data set [1] is on record as 0.23. Further, the “EC50 (mol%)” value in data set [2] is 0.2597 mol% and 0.260 mol%. Moreover, in data set [3], the pIC50 was below 3.70, the IC80 was above 200 µM and the “MRSA IC50” value is “lay outside the concentration range tested”. Moreover, in the data set on S. aureus, the IC80 was above 200 µM, the negative logarithm of the IC50 (pIC50) was below 3.70 and the “S. aureus IC50” value is “lay outside the concentration range tested”. In data set [4], the “K a” value stood at 207 M⁻¹. Besides, the “zone of inhibition, qualitative measure of activity” value in data set [5] was “promising bioactivity”.

Turning to `O=c1c(Nc2ccccc2Cl)c(NC23CC4CC(CC(C4)C2)C3)c1=O` [Compound 5], the “EC50 (mol%)” value in data set [2] is listed as 1.349 mol%. Also, in data set [3], the pIC50 was below 3.70, the IC80 was above 200 µM and the “MRSA IC50” value is “lay outside the concentration range tested”. For the same compound, in the data set with S. aureus, the IC80 is above 200 µM, the pIC50 is below 3.70 and the “S. aureus IC50” value is given as “lay outside the concentration range tested”. Moreover, in data set [4], the “K a” value amounted to 44 M⁻¹. The “zone of inhibition, qualitative measure of activity” value in data set [5] was “promising bioactivity”.

Turning to `O=c1c(Nc2ccccc2)c(NC23CC4CC(CC(C4)C2)C3)c1=O` [Compound 6], the “Hammett parameter (σ)” value in data set [1] is 0.0. Moreover, in data set [3], the pIC50 was below 3.70, the IC80 is above 200 µM and the “MRSA IC50” value is “lay outside the concentration range tested”. In the data set with S. aureus, the IC80 is above 200 µM, the pIC50 was below 3.70 and the “S. aureus IC50” value is “lay outside the concentration range tested”. In data set [4], the “K a” value was 138 M⁻¹.
